Here are results for ten molecules from patent US20240254186A1, “GLP-1 Receptor Agonists Having Improved Pharmacological and Drug Delivery Properties” (priority 2021, published 2024).

The target in this experiment is T1, hGLP1 receptor (Homo sapiens, UniProt P43220).
T1 construct: expressed in transfected cells; host or cells: HEK (human embryonic kidney) cells co-expressing hGLP1 receptor and a CRE-Luciferase construct
Nature of the experiment: cAMP HTRF agonist assay in HEK cells co-expressing the hGLP1 receptor and CRE-Luciferase construct. Type of experiment: cell-based. On the procedure:
Human embryonic kidney cells (HEK) co-expressing the hGLP1 receptor and CRE-Luciferase construct were used to determine agonist potency in this assay. The cells were thawed briefly at 37° C., transferred to a sterile tube and re-suspended in complete media at 37° C. Cells were centrifuged at 1000 rpm for 5 minutes and cells collected; cells were re-suspended in assay buffer consisting of DPBS (GIBCO) with 500 μM of the phosphodiesterase inhibitor IBMX. […] The optimal cell density was determined to be 1000 cells/well; cells were added to wells in 384-well plates containing appropriate pre-prepared dilutions of compounds (test peptides or reference compound exendin-4), sealed and incubated with CO2 for 30 min. Test peptide solutions were diluted from 10 mM stock solutions; for most peptides an initial run was performed in duplicate from a maximal concentration of 1.0 μM, with 11 concentrations tested for each peptide using serial 1:3 dilution from this maximal concentration. […] The agonist assay was a homogeneous time-resolved fluorescence (HTRF) assay (Cisbio).
Following incubation of the cells for 30 minutes with test or reference peptides, 5 μL of the cAMP acceptor cAMP-d2, prepared previously as a working solution from frozen stock (1:20 dilution), was added to each well of the assay plate, along with 5 μL of anti-cAMP antibody-cryptate working solution (diluted 1:20 from frozen stock). The wells were incubated for 1 hour at room temperature, and fluorescence was then read at 665 and 615 nm with an Envision reader with TRF laser. Data were saved and analyzed using Prism software (GraphPad). Concentration-response analysis was performed using 4-parameter logistic fits of the resulting data, and EC50 values obtained for each test and reference compound.

[1] abbreviates: read-out: cAMP EC50, nM (0.1% albumin), Table 6, C-terminal PK-modifier conjugates, 0.1% albumin.
Where [2] appears, read: Table 6, cell annotated (0% albumin), read-out: cAMP EC50.

Read-outs that look alike come from different tables or passages of the source. Numbered stars: 1 amine (or outer) side, 2 acyl side, 3 side chain; on linkers, the order of the positions; unused ones are H or OH. Square brackets hold non-standard residues; d marks the D form. Side chains are listed from the residue outwards. Peptide text beside a SMILES is read from it. * marks the point of attachment. Dap(Nα-HOOC(CH2)16CO)OH = O=C(O)CCCCCCCCCCCCCCCCC(=O)N[C@@H](CN*)C(=O)O; X5 = O=C(O)CCCCCCCCCCCCCCCc1cn(-c2ccc(C[C@H](N[*:1])C(=O)[*:2])cc2)nn1; X3 = O=C(O)CCCCCCCCCCCCCCCc1cnnn1-c1ccc(C[C@H](N[*:1])C(=O)[*:2])cc1; X7 = C[C@@](Cc1ccc(-c2ccccc2)cc1)(N[*:1])C(=O)[*:2]; X4 = C[C@](Cc1ccc(-c2ccccc2)cc1)(N[*:1])C(=O)[*:2]; Bip = N[C@@H](Cc1ccc(-c2ccccc2)cc1)C(=O)O; C18 diacid = O=C(O)CCCCCCCCCCCCCCCCC(=O)*; X2 = O=C(CCc1ccc(I)cc1)N[C@@H](CN*)C(=O)O; αMePhe(2-F) = C[C@](N)(Cc1ccccc1F)C(=O)O; γGlu = O=C(O)[C@H](CCC(=O)[*:2])N[*:1]; PEG4 = NCCOCCOCCOCCOCCC(=O)O; αMeP = C[C@@]1(C(=O)O)CCCN1; AEEA = NCCOCCOCC(=O)O; Aib = CC(C)(N)C(=O)O; CO = O=C([*:1])[*:2]

T1 sequence (P43220 24-463): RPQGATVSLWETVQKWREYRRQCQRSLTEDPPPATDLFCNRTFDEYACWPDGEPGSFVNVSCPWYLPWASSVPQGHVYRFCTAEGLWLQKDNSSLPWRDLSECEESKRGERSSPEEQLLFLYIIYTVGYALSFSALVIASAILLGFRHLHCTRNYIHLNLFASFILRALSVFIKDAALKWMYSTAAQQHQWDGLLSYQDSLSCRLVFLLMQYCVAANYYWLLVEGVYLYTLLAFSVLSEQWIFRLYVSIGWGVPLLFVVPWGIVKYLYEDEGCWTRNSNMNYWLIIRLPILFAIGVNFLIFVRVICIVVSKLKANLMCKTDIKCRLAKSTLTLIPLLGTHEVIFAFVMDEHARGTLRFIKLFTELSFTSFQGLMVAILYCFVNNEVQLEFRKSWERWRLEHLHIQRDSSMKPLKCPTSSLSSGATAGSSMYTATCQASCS

Turning to `C[C@@H](O)[C@H](NC(=O)CNC(=O)[C@H](CCC(=O)O)NC(=O)[C@]1(C)CCCN1C(=O)[C@@H](N)Cc1c[nH]cn1)C(=O)N[C@@](C)(Cc1ccccc1F)C(=O)N[C@H](C(=O)N[C@@H](CO)C(=O)N[C@@H](CC(=O)O)C(=O)N[C@@H](Cc1ccc(-c2ccccc2)cc1)C(=O)N[C@@H](Cc1ccc(-c2ccccc2)cc1)C(=O)NC(C)(C)C(=O)N[C@@H](CCCCNC(=O)CCOCCOCCOCCOCCNC(=O)CC[C@H](NC(=O)CCCCCCCCCCCCCCCCC(=O)O)C(=O)O)C(N)=O)[C@@H](C)O` [4-65, H2N-His-α-MePro-Glu-Gly-Thr-α-MePhe(2-F)-Thr-Ser-Asp-Bip-Bip-C(O)NH-RY21] (H-H[αMeP]EGT[αMePhe(2-F)]TSD[Bip][Bip][Aib]K([PEG4-γGlu-C18 diacid])-NH2), the EC50 (commonly the midpoint of the concentration-response curve) under setting [1] is 3.8 nM.

For the molecule `C[C@@H](O)[C@H](NC(=O)CNC(=O)[C@H](CCC(=O)O)NC(=O)[C@]1(C)CCCN1C(=O)[C@@H](N)Cc1c[nH]cn1)C(=O)N[C@@](C)(Cc1ccccc1F)C(=O)N[C@H](C(=O)N[C@@H](CO)C(=O)N[C@@H](CC(=O)O)C(=O)N[C@@H](Cc1ccc(-c2ccccc2)cc1)C(=O)N[C@@H](Cc1ccc(-n2cc(CCCCCCCCCCCCCCCC(=O)O)nn2)cc1)C(N)=O)[C@@H](C)O` [4-70-i1, H2N-His-α-MePro-Glu-Gly-Thr-α-MePhe(2-F)-Thr-Ser-Asp-Bip-FN3(C18 acid)-C(O)NH2] (H-H[αMeP]EGT[αMePhe(2-F)]TSD[Bip][X5]-NH2), under setting [2], the half-maximal effective concentration (EC50) was determined as 0.04 nM. Take `C[C@@H](O)[C@H](NC(=O)CNC(=O)[C@H](CCC(=O)O)NC(=O)[C@]1(C)CCCN1C(=O)[C@@H](N)Cc1c[nH]cn1)C(=O)N[C@@](C)(Cc1ccccc1F)C(=O)N[C@H](C(=O)N[C@@H](CO)C(=O)N[C@@H](CC(=O)O)C(=O)N[C@@H](Cc1ccc(-c2ccccc2)cc1)C(=O)N[C@@H](Cc1ccc(-n2nncc2CCCCCCCCCCCCCCCC(=O)O)cc1)C(N)=O)[C@@H](C)O` [4-70-i2, H2N-His-α-MePro-Glu-Gly-Thr-α-MePhe(2-F)-Thr-Ser-Asp-Bip-FN3(C18 acid)-C(O)NH2] (H-H[αMeP]EGT[αMePhe(2-F)]TSD[Bip][X3]-NH2): the EC50 under setting [2] came out at 0.7 nM. Take `C[C@@H](O)[C@H](NC(=O)CNC(=O)[C@H](CCC(=O)O)NC(=O)[C@]1(C)CCCN1C(=O)[C@@H](N)Cc1c[nH]cn1)C(=O)N[C@@](C)(Cc1ccccc1F)C(=O)N[C@H](C(=O)N[C@@H](CO)C(=O)N[C@@H](CC(=O)O)C(=O)N[C@@H](Cc1ccc(-n2cc(CCCCCCCCCCCCCCCC(=O)O)nn2)cc1)C(=O)N[C@@H](Cc1ccc(-c2ccccc2)cc1)C(N)=O)[C@@H](C)O` [4-71-i1, H2N-His-α-MePro-Glu-Gly-Thr-α-MePhe(2-F)-Thr-Ser-Asp-FN3(C18 acid)-Bip-C(O)NH2] (H-H[αMeP]EGT[αMePhe(2-F)]TSD[X5][Bip]-NH2): the EC50 under setting [2] is 0.009 nM. Take `C[C@@H](O)[C@H](NC(=O)CNC(=O)[C@H](CCC(=O)O)NC(=O)[C@]1(C)CCCN1C(=O)[C@@H](N)Cc1c[nH]cn1)C(=O)N[C@@](C)(Cc1ccccc1F)C(=O)N[C@H](C(=O)N[C@@H](CO)C(=O)N[C@@H](CC(=O)O)C(=O)N[C@@H](Cc1ccc(-n2nncc2CCCCCCCCCCCCCCCC(=O)O)cc1)C(=O)N[C@@H](Cc1ccc(-c2ccccc2)cc1)C(N)=O)[C@@H](C)O` [4-71-i2, H2N-His-α-MePro-Glu-Gly-Thr-α-MePhe(2-F)-Thr-Ser-Asp-FN3(C18 acid)-Bip-C(O)NH2] (H-H[αMeP]EGT[αMePhe(2-F)]TSD[X3][Bip]-NH2): the concentration for a half-maximal effect (EC50) under setting [2] stood at 0.1 nM. Take `C[C@@H](O)[C@H](NC(=O)CNC(=O)[C@H](CCC(=O)O)NC(=O)[C@]1(C)CCCN1C(=O)[C@@H](N)Cc1c[nH]cn1)C(=O)N[C@@](C)(Cc1ccccc1F)C(=O)N[C@H](C(=O)N[C@@H](CO)C(=O)N[C@@H](CC(=O)O)C(=O)N[C@@H](Cc1ccc(-c2ccccc2)cc1)C(=O)N[C@@](C)(Cc1ccc(-c2ccccc2)cc1)C(N)=O)[C@@H](C)O` [4-73-i1, H2N-His-α-MePro-Glu-Gly-Thr-α-MePhe(2F)-Thr-Ser-Asp-Bip-α-MeBip-C(O)NH2] (H-H[αMeP]EGT[αMePhe(2-F)]TSD[Bip][X7]-NH2): the concentration giving a half-maximal response (EC50) under setting [2] was determined as 0.05 nM. Regarding `C[C@@H](O)[C@H](NC(=O)CNC(=O)[C@H](CCC(=O)O)NC(=O)[C@]1(C)CCCN1C(=O)[C@@H](N)Cc1c[nH]cn1)C(=O)N[C@@](C)(Cc1ccccc1F)C(=O)N[C@H](C(=O)N[C@@H](CO)C(=O)N[C@@H](CC(=O)O)C(=O)N[C@@H](Cc1ccc(-c2ccccc2)cc1)C(=O)N[C@](C)(Cc1ccc(-c2ccccc2)cc1)C(N)=O)[C@@H](C)O` [4-73-i2, H2N-His-α-MePro-Glu-Gly-Thr-α-MePhe(2F)-Thr-Ser-Asp-Bip-α-MeBip-C(O)NH2] (H-H[αMeP]EGT[αMePhe(2-F)]TSD[Bip][X4]-NH2), under setting [2], the EC50 was found to be 0.2 nM.

On to `C[C@@H](O)[C@H](NC(=O)CNC(=O)[C@H](CCC(=O)O)NC(=O)C(C)(C)NC(=O)[C@@H](N)Cc1c[nH]cn1)C(=O)N[C@@](C)(Cc1ccccc1F)C(=O)N[C@H](C(=O)N[C@@H](CO)C(=O)N[C@@H](CC(=O)O)C(=O)N[C@@H](Cc1ccc(-c2ccccc2)cc1)C(=O)N[C@H](Cc1ccc(OC(=O)NCCOCCOCC(=O)NCCOCCOCC(N)=O)cc1)C(N)=O)[C@@H](C)O` [(D)-4-42, H2N-His-Aib-Glu-Gly-Thr-α-MePhe(2-F)-Thr-Ser-Asp-Bip-D-Tyr(O-R4)-C(O)NH2] (H-H[Aib]EGT[αMePhe(2-F)]TSD[Bip][dY]([CO-AEEA-AEEA-NH2])-NH2), for which, under setting [1], the half-maximal effective concentration (EC50) was found to be 791 nM. With `C[C@@H](O)[C@H](NC(=O)CNC(=O)[C@H](CCC(=O)O)NC(=O)C(C)(C)NC(=O)[C@@H](N)Cc1c[nH]cn1)C(=O)N[C@@](C)(Cc1ccccc1F)C(=O)N[C@H](C(=O)N[C@@H](CO)C(=O)N[C@@H](CC(=O)O)C(=O)N[C@@H](Cc1ccc(-c2ccccc2)cc1)C(=O)N[C@H](Cc1ccc(OC(=O)NCCOCCOCC(=O)NCCOCCOCC(=O)NC[C@H](NC(=O)CCCCCCCCCCCCCCCCC(=O)O)C(=O)O)cc1)C(N)=O)[C@@H](C)O` [(D)-4-43, H2N-His-Aib-Glu-Gly-Thr-α-MePhe(2-F)-Thr-Ser-Asp-Bip-D-Tyr(O-R5)-C(O)NH2] (H-H[Aib]EGT[αMePhe(2-F)]TSD[Bip][dY]([CO-AEEA-AEEA-Dap(Nα-HOOC(CH2)16CO)OH])-NH2), the half-maximal effective concentration (EC50) under setting [1] turned out to be 693 nM. Take `C[C@@H](O)[C@H](NC(=O)CNC(=O)[C@H](CCC(=O)O)NC(=O)C(C)(C)NC(=O)[C@@H](N)Cc1c[nH]cn1)C(=O)N[C@@](C)(Cc1ccccc1F)C(=O)N[C@H](C(=O)N[C@@H](CO)C(=O)N[C@@H](CC(=O)O)C(=O)N[C@@H](Cc1ccc(-c2ccccc2)cc1)C(=O)N[C@H](Cc1ccc(OC(=O)NCCOCCOCC(=O)NCCOCCOCC(=O)NCCOCCOCC(=O)NC[C@H](NC(=O)CCc2ccc(I)cc2)C(=O)O)cc1)C(N)=O)[C@@H](C)O` [(D)-4-44, H2N-His-Aib-Glu-Gly-Thr-α-MePhe(2-F)-Thr-Ser-Asp-Bip-D-Tyr(O-R6)-C(O)NH2] (H-H[Aib]EGT[αMePhe(2-F)]TSD[Bip][dY]([CO-AEEA-AEEA-AEEA-X2])-NH2): under setting [1], the concentration for a half-maximal effect (EC50) was determined as 299 nM.
